Measured values taken from PMC8698454, “Anti-Colonization Effect of Au Surfaces with Self-Assembled Molecular Monolayers Functionalized with Antimicrobial Peptides on S. epidermidis” (Antibiotics, 2021).
In brackets after ≈: the same amount, converted by molar mass. Read-outs that look alike come from different tables or passages of the source. Where a SMILES comes first, the peptide text is derived from it. [ ]: non-standard residue; d: D form. Lys(N3) = [N-]=[N+]=NCCCC[C@H](N)C(=O)O

What was measured:
[1] = test system: Escherichia coli ATCC 25922; assay type: cell-based; conditions: for Antimicrobial Activity (MIC) E. coli: ATCC 25922; for MIC E. coli ATCC 25922: Table S3
Protocol: (§1) The minimal inhibitory concentration (MIC) of peptides 1a, 1b, 2a, and 2b were determined by broth microdilution according to the Clinical Laboratory Standard Institute (CLSI) method […]-A9. The MICs of the peptides 1c, 1d, 2c, and 2d were determined by broth dilution according to the European Committee for Antimicrobial Susceptibility Testing (EUCAST). Final concentrations of 0.5-256 μg/mL were tested against a panel of reference bacteria-S. aureus (ATCC 9144), S. epidermidis (1457), E. coli (ATCC 25922), and P. aeruginosa (ATCC 27853). Each strain was tested in biological triplicate. The MIC values were defined as the lowest concentration of the peptides resulting in no visual growth.

[2] = test system: Pseudomonas aeruginosa ATCC 27853; assay type: cell-based; conditions: for Antimicrobial Activity (MIC) P. aeruginosa: ATCC 27853; for MIC P. aeruginosa ATCC 27853: Table S3
Protocol: as §1

[3] = test system: Staphylococcus aureus ATCC 9144; assay type: cell-based; conditions: for Antimicrobial Activity (MIC) S. aureus: ATCC 9144; for MIC S. aureus ATCC 9144: Table S3
Protocol: as §1

[4] = test system: Staphylococcus epidermidis 1457; assay type: cell-based; conditions: for Antimicrobial Activity (MIC) S. epidermidis: 1457; for MIC S. epidermidis 1457: Table S3
Protocol: as §1

[5] = test system: Gram-positive bacteria; assay type: cell-based, S. aureus and S. epidermidis
Protocol: as §1

[6] = test system: Gram-negative bacteria; assay type: cell-based, E. coli and P. aeruginosa
Protocol: as §1

[7] = technical replicate 1, biological replicate BR1
[8] = technical replicate 1, biological replicate BR2
[9] = technical replicate 1, biological replicate BR3
[10] = technical replicate 2, biological replicate BR1
[11] = technical replicate 2, biological replicate BR2
[12] = technical replicate 2, biological replicate BR3
[13] = technical replicate 3, biological replicate BR1
[14] = technical replicate 3, biological replicate BR2
[15] = technical replicate 3, biological replicate BR3

[N-]=[N+]=NCCCC[C@H](NC(=O)[C@H](Cc1ccccc1)NC(=O)[C@H](CCCNC(=N)N)NC(=O)[C@H](Cc1c[nH]c2ccccc12)NC(=O)[C@H](Cc1c[nH]c2ccccc12)NC(=O)[C@@H](N)CCCNC(=N)N)C(N)=O [1c] (H-RWWRF[Lys(N3)]-NH2)
Antimicrobial Activity (MIC) E. coli [1]: 64 µg/mL
MIC E. coli ATCC 25922 [1, 7]: 32 µg/mL (≈ 31.9 µM)
MIC E. coli ATCC 25922 [1, 8]: 64 µg/mL (≈ 63.8 µM)
MIC E. coli ATCC 25922 [1, 9]: 32 µg/mL (≈ 31.9 µM)
MIC E. coli ATCC 25922 [1, 10]: 64 µg/mL (≈ 63.8 µM)
MIC E. coli ATCC 25922 [1, 11]: 64 µg/mL (≈ 63.8 µM)
MIC E. coli ATCC 25922 [1, 12]: 32 µg/mL (≈ 31.9 µM)
MIC E. coli ATCC 25922 [1, 13]: 64 µg/mL (≈ 63.8 µM)
MIC E. coli ATCC 25922 [1, 14]: 64 µg/mL (≈ 63.8 µM)
MIC E. coli ATCC 25922 [1, 15]: 32 µg/mL (≈ 31.9 µM)
Antimicrobial Activity (MIC) P. aeruginosa [2]: 64 µg/mL
MIC P. aeruginosa ATCC 27853 [2, 7]: 64 µg/mL (≈ 63.8 µM)
MIC P. aeruginosa ATCC 27853 [2, 8]: 64 µg/mL (≈ 63.8 µM)
MIC P. aeruginosa ATCC 27853 [2, 9]: 32 µg/mL (≈ 31.9 µM)
MIC P. aeruginosa ATCC 27853 [2, 10]: 64 µg/mL (≈ 63.8 µM)
MIC P. aeruginosa ATCC 27853 [2, 11]: 64 µg/mL (≈ 63.8 µM)
MIC P. aeruginosa ATCC 27853 [2, 12]: 32 µg/mL (≈ 31.9 µM)
MIC P. aeruginosa ATCC 27853 [2, 13]: 64 µg/mL (≈ 63.8 µM)
MIC P. aeruginosa ATCC 27853 [2, 14]: 64 µg/mL (≈ 63.8 µM)
MIC P. aeruginosa ATCC 27853 [2, 15]: 32 µg/mL (≈ 31.9 µM)
Antimicrobial Activity (MIC) S. aureus [3]: 32 µg/mL
MIC S. aureus ATCC 9144 [3, 7]: 32 µg/mL (≈ 31.9 µM)
MIC S. aureus ATCC 9144 [3, 8]: 32 µg/mL (≈ 31.9 µM)
MIC S. aureus ATCC 9144 [3, 9]: 32 µg/mL (≈ 31.9 µM)
MIC S. aureus ATCC 9144 [3, 10]: 32 µg/mL (≈ 31.9 µM)
MIC S. aureus ATCC 9144 [3, 11]: 32 µg/mL (≈ 31.9 µM)
MIC S. aureus ATCC 9144 [3, 12]: 32 µg/mL (≈ 31.9 µM)
MIC S. aureus ATCC 9144 [3, 13]: 32 µg/mL (≈ 31.9 µM)
MIC S. aureus ATCC 9144 [3, 14]: 32 µg/mL (≈ 31.9 µM)
MIC S. aureus ATCC 9144 [3, 15]: 32 µg/mL (≈ 31.9 µM)
Antimicrobial Activity (MIC) S. epidermidis [4]: 16 µg/mL
MIC S. epidermidis 1457 [4, 7]: 16 µg/mL (≈ 15.9 µM)
MIC S. epidermidis 1457 [4, 8]: 16 µg/mL (≈ 15.9 µM)
MIC S. epidermidis 1457 [4, 9]: 16 µg/mL (≈ 15.9 µM)
MIC S. epidermidis 1457 [4, 10]: 16 µg/mL (≈ 15.9 µM)
MIC S. epidermidis 1457 [4, 11]: 16 µg/mL (≈ 15.9 µM)
MIC S. epidermidis 1457 [4, 12]: 16 µg/mL (≈ 15.9 µM)
MIC S. epidermidis 1457 [4, 13]: 16 µg/mL (≈ 15.9 µM)
MIC S. epidermidis 1457 [4, 14]: 16 µg/mL (≈ 15.9 µM)
MIC S. epidermidis 1457 [4, 15]: 16 µg/mL (≈ 15.9 µM)
MIC against Gram-positive bacteria [5]: 16 to 32 µg/mL
MIC against Gram-negative bacteria [6]: 64 µg/mL (≈ 63.8 µM)

[N-]=[N+]=NCCCC[C@@H]1NC(=O)[C@H](Cc2ccccc2)NC(=O)[C@H](CCCNC(=N)N)NC(=O)[C@H](Cc2c[nH]c3ccccc23)NC(=O)[C@H](Cc2c[nH]c3ccccc23)NC(=O)[C@H](CCCNC(=N)N)NC1=O [1d] (cyclo(RWWRF[Lys(N3)]))
Antimicrobial Activity (MIC) E. coli [1]: 64 µg/mL
MIC E. coli ATCC 25922 [1, 7]: 64 µg/mL (≈ 64.9 µM)
MIC E. coli ATCC 25922 [1, 8]: 64 µg/mL (≈ 64.9 µM)
MIC E. coli ATCC 25922 [1, 9]: 64 µg/mL (≈ 64.9 µM)
MIC E. coli ATCC 25922 [1, 10]: 64 µg/mL (≈ 64.9 µM)
MIC E. coli ATCC 25922 [1, 11]: 64 µg/mL (≈ 64.9 µM)
MIC E. coli ATCC 25922 [1, 12]: 64 µg/mL (≈ 64.9 µM)
MIC E. coli ATCC 25922 [1, 13]: 64 µg/mL (≈ 64.9 µM)
MIC E. coli ATCC 25922 [1, 14]: 64 µg/mL (≈ 64.9 µM)
MIC E. coli ATCC 25922 [1, 15]: 64 µg/mL (≈ 64.9 µM)
Antimicrobial Activity (MIC) P. aeruginosa [2]: 128 µg/mL
MIC P. aeruginosa ATCC 27853 [2, 7]: 128 µg/mL (≈ 130 µM)
MIC P. aeruginosa ATCC 27853 [2, 8]: 256 µg/mL (≈ 260 µM)
MIC P. aeruginosa ATCC 27853 [2, 9]: 128 µg/mL (≈ 130 µM)
MIC P. aeruginosa ATCC 27853 [2, 10]: 128 µg/mL (≈ 130 µM)
MIC P. aeruginosa ATCC 27853 [2, 11]: 256 µg/mL (≈ 260 µM)
MIC P. aeruginosa ATCC 27853 [2, 12]: 128 µg/mL (≈ 130 µM)
MIC P. aeruginosa ATCC 27853 [2, 13]: 128 µg/mL (≈ 130 µM)
MIC P. aeruginosa ATCC 27853 [2, 14]: 256 µg/mL (≈ 260 µM)
MIC P. aeruginosa ATCC 27853 [2, 15]: 128 µg/mL (≈ 130 µM)
Antimicrobial Activity (MIC) S. aureus [3]: 8 µg/mL
MIC S. aureus ATCC 9144 [3, 7]: 8 µg/mL (≈ 8.11 µM)
MIC S. aureus ATCC 9144 [3, 8]: 16 µg/mL (≈ 16.2 µM)
MIC S. aureus ATCC 9144 [3, 9]: 8 µg/mL (≈ 8.11 µM)
MIC S. aureus ATCC 9144 [3, 10]: 8 µg/mL (≈ 8.11 µM)
MIC S. aureus ATCC 9144 [3, 11]: 16 µg/mL (≈ 16.2 µM)
MIC S. aureus ATCC 9144 [3, 12]: 8 µg/mL (≈ 8.11 µM)
MIC S. aureus ATCC 9144 [3, 13]: 8 µg/mL (≈ 8.11 µM)
MIC S. aureus ATCC 9144 [3, 14]: 16 µg/mL (≈ 16.2 µM)
MIC S. aureus ATCC 9144 [3, 15]: 16 µg/mL (≈ 16.2 µM)
Antimicrobial Activity (MIC) S. epidermidis [4]: 8 µg/mL
MIC S. epidermidis 1457 [4, 7]: 8 µg/mL (≈ 8.11 µM)
MIC S. epidermidis 1457 [4, 8]: 8 µg/mL (≈ 8.11 µM)
MIC S. epidermidis 1457 [4, 9]: 16 µg/mL (≈ 16.2 µM)
MIC S. epidermidis 1457 [4, 10]: 8 µg/mL (≈ 8.11 µM)
MIC S. epidermidis 1457 [4, 11]: 8 µg/mL (≈ 8.11 µM)
MIC S. epidermidis 1457 [4, 12]: 16 µg/mL (≈ 16.2 µM)
MIC S. epidermidis 1457 [4, 13]: 8 µg/mL (≈ 8.11 µM)
MIC S. epidermidis 1457 [4, 14]: 8 µg/mL (≈ 8.11 µM)
MIC S. epidermidis 1457 [4, 15]: 16 µg/mL (≈ 16.2 µM)
MIC against Gram-positive bacteria [5]: 8 µg/mL (≈ 8.11 µM)
